pIC50: −log10 of the molar value. Read-outs that look alike come from different tables or passages of the source.
Assays:
[1] = target: T1, CB2R (Homo sapiens, UniProt P34972); test: double luciferase reporter screening system in HEK293-CB2 cells; format: cell-based
T1 construct: expressed in transfected cells; host or cells: HEK293 cells stably transfected with pIRES2-EGFP-CB2, pGL4.29 [luc2P/CRE/Hygro] and pRL-TK
Protocol: To generate the HEK293-CB2 cells, 5 × 10^5 HEK293 cells were cultured in a 60 mm culture dish for 12 h, washed with PBS, and then transfected with Lipofectamine 3000 reagent containing a test reporter plasmid, control reporter plasmid encoding Renilla luciferase, and effector plasmid. The ratio of the transfection plasmid pIRES2-EGFP-CB2, pGL4.29 [luc2P/CRE/Hygro], and pRL-TK was 2 μg, 10 μg, and 1μg, respectively. After a 24-htransfection, cells were selected and cultured in the medium containing G418 (800 μg·mL^−1) and hygromycin (400 μg·mL^−1) for two weeks. The surviving cells were picked and expanded as HEK293-CB2R cells.
Several aspects of the high-throughput screening system were optimized to ensure efficient and accurate application of the system for high-throughput data collection. To conduct high-throughput assays in 96-well plates, the number of cells seeded per well, incubation time, drug and AM630 concentrations, and the DMSO content were optimized. The dual luciferase assay was performed as described previously. […] Subsequently, the quantitative evaluation indexes of the high-throughput screening system, including the signal-to-background ratio, S/B = Msignal/Mbackground; signal window, SW = Msignal − Mbackground; signal-to-noise ratio, S/N = (Msignal − Mbackground)/SDbackground; signal background coefficient of variation, CV(%) = 100 × SDsignal/Msignal; and Z’ factor were determined to ensure its efficient and accurate application of the system in high-throughput data collection. Here, Z′ = 1 − 3(SDsignal + SDbackground)/|Msignal − Mbackground| [25], where M represents an average of the relative luminescence value and SD is the standard deviation of M.
The HEK293-CB2 cells from 10–40 passages were separately inoculated into 96-well plates at 5 × 10^3 cells per well. […] The results were expressed as relative luminescence values.
The HEK293-CB2 cells were inoculated on a 96-well culture plate with a density of 5 × 10^3 cells per well. […] The relative luminescence value was used to express the expression of CB2R.
Furthermore, the activation of the compounds on CB2R was also verified by using the CB2R inverse agonist AM630. The HEK293-CB2 cells were inoculated on a 6-well culture plate at a density of 5 × 10^4 cells per well. […] The expression of the CB2R gene is expressed by the relative luminescence value.

[2] = system: mBMSCs cells; test: proliferation of BMSCs (CCK8); format: cell-based, rat; settings: 1 μM, 48 h
Protocol: (§1) BMSCs were isolated from the femur of 1-day-old Wistar rats and cultured in a dish containing α-MEM supplemented with 10% FBS, 100 U·mL^−1 penicillin, […] streptomycin, and 1% L-Glutaminea in a humidified atmosphere of 5% CO2 for 24 h. The medium was changed every three days. The subculture cells (passage 2–4) were used for subsequent experiments. BMSCs were identified in terms of the morphological character and properties of differentiation into osteoblasts. This experiment was approved by the Bioethics Committee of Zhejiang University of Traditional Chinese Medicine.
(§2) The BMSCs cells were inoculated in a 96-well plate at a density of 1 × 10^4 cells per well and cultured at 37 °C for 24 h. […] The optical density (OD) value was determined at 450 nm. The BMSCs cells were treated as described above and cultured for seven days to measure the ALP activity according to the kit instructions or cultured for five days to stain ALP in the osteoblasts according to the following procedures. Briefly, cells were washed with pre-cooled PBS twice and stained with the alkaline phosphatase staining solution for 30 min at 37 °C. After discarding the dye solution, cells were rinsed with distilled water three times and observed and photographed under a light microscope.

[3] = system: osteoclasts derived from RAW264.7 cells; test: TRAP activity of osteoclasts derived from RAW264.7 cells induced with RANKL; format: cell-based, murine; settings: 1 μM, three-day treatment; enzyme activity and cell staining
Protocol: The murine macrophage RAW264.7 cell line, which has the potential to differentiate into osteoclasts under the induction of RANKL, was obtained from the Cell Bank of the Chinese Academy of Sciences (Shanghai, China). The cells were cultured in DMEM containing 10% (v/v), 1% (v/v) penicillin, and streptomycin (Beyotime, Shanghai, China) at 37 °C in humidified air with 5% CO2, and then subcultured every two days. For induction of the osteoclasts, RAW264.7 cells were incubated with 25 ng·mL^−1 RANKL for 72 h. Osteoclasts were identified by TRAP staining.
RAW264.7 cells were inoculated in a 96-well plate at a density of 1 × 10^4 cells per well. After a 24-h culture at 37 °C, cells were treated with the test compounds for 48 h and cell viability was determined with the CCK-8 kit according to the instructions. RAW264.7 cells were inoculated on a 96-well culture plate at a density of 1 × 10^4 cells per well, induced with […] of nuclear factor-κB receptor activator ligand (RANKL) to differentiate into osteoclasts for 72 h. […] Briefly, the cells were washed with sodium thiobarbital twice, lysed with 0.1% Triton X-100 (10 μL per well) for 10 min, and then incubated with 100 μL of TRAP reaction solution (0.02 g disodium nitrophenyl phosphate and 0.1 g potassium sodium tartrate dissolved in 10 mL deionized water with pH adjusted to 3.5 by addition of 1 mol·L^−1 HCl) for 30 min at 37 °C. The reaction was terminated with 1 mol·L^−1 of NaOH solution (100 μL per well) and the absorbance was determined at a wavelength of 405 nm. The TRAP activity was expressed by the amount (mole) of p-nitrophenol produced by 100 osteoclasts. For staining, the osteoclasts were treated as described above, stained according to the instruction of the TRAP staining kit, and observed and photographed under a light microscope.

[4] = system: osteoblasts derived from mBMSC; test: ALP activity of osteoblasts derived from BMSCs; format: cell-based, rat; settings: 1 μM, seven days
Protocol: as §1, §2

[5] = system: osteoblasts derived from mBMSC; test: bone mineralization nodules of osteoblasts (alizarin red staining); format: cell-based, rat; settings: 1 μM, 14 days
Protocol: as §1
Cells were treated as described above for 14 days to observe the bone mineralized nodule formation using alizarin red staining solution. Briefly, the cells were washed with pre-cooled PBS twice, fixed with 3.7% formaldehyde for 10 min, and stained with ARS dye (pH = 4.2) containing 40 mM alizarin redstain for 10 min. The morphology and number of bone mineralized nodules of osteoblasts were observed under a light microscope.

[6] = target: T1, CB2R; test: forskolin-stimulated cAMP accumulation assay in HEK293-CB2 cells; format: cell-based; settings: forskolin 30 min, then compound 6 h, read-out: IC50 of inhibition of forskolin-stimulated cAMP
Protocol: After treatment, the cell supernatant was diluted with PBS (pH 7.2–7.4). The cells were lysed by repeated freeze–thaw cycles and being centrifuged for 20 min at 2000–3000 r.p.m. The concentration of cAMP in the cell lysate was determined according to the instructions of the cAMP kit.

[7] = HEK293-CB2 cells, pretreated with 1 μM AM630 for 30 min, then 1 μM compound 6 h

T1 sequence (P34972 whole entry): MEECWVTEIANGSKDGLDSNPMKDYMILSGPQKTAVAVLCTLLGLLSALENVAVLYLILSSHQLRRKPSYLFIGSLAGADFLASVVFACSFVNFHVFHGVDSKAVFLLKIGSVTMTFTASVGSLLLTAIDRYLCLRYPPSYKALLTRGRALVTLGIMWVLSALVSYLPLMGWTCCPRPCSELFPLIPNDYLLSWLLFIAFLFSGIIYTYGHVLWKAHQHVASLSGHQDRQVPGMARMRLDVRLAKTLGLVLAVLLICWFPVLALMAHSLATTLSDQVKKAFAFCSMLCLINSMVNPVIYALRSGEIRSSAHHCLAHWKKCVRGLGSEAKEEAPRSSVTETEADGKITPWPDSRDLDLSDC

SMILES	agonistic effect on CB2R (relative luminescence / fluorescence expression in HEK293-CB2) ([1]; 1 μM, 6 h, HEK293-CB2 cells)	reversal of the agonistic effect on CB2R by AM630 [1, 7]	proliferation of mBMSCs cells [2]	TRAP activity of osteoclasts derived from RAW264.7 cells induced with RANKL [3]	ALP activity of osteoblasts derived from mBMSC [4]	matrix mineralization of osteoblasts derived from mBMSC [5]	pIC50 [6]	reversal effect on the agonistic effect of HU308 on CB2R [1]	agonistic effect on CB2R (relative luminescence / fluorescence expression in HEK293-CB2) [1]	reversal of the agonistic effect on CB2R by AM630 [1]	signal average and standard deviation (positive control group) ([1]; screening system validation, forskolin 1 μM)
C[C@H]1[C@H](C)CC[C@]2(C)CC[C@]3(C)C(=CC(=O)[C@@H]4[C@@]5(C)CC[C@@H](O)[C@](C)(C(=O)O)[C@@H]5CC[C@]43C)[C@H]12 [11-Keto-beta-boswellic acid]	could increase the fluorescence expression	could be abated by AM630	increased	inhibited TRAP activity	increased	increased	7.14	–	–	–	–
COc1ccc(C(=O)c2c(C)n(CCN3CCOCC3)c3cc(I)ccc23)cc1 [AM630, reference compound]	–	–	–	–	–	–	–	mitigated	–	–	–
CC(=O)OCC1=C[C@@H]2OC(=O)C3=CO[C@@H](O[C@@H]4O[C@H](CO)[C@@H](O)[C@H](O)[C@H]4O)[C@H]1[C@@H]32 [Asperuloside]	–	–	had no effect on the proliferation	–	–	–	6.55	–	could increase the fluorescence expression	could be abated by AM630	–
COc1cc(/C=C/c2ccccc2)oc(=O)c1 [Desmethoxyyangonin]	could increase the fluorescence expression	could be abated by AM630	increased	inhibited TRAP activity	increased	increased	7.52	–	–	–	–
COC1=CC(=O)O[C@@H](CCc2ccc3c(c2)OCO3)C1 [Dihydromethysticin]	could increase the fluorescence expression	could be abated by AM630	increased	–	increased	increased	7.45	–	–	–	–
COc1cc(O)ccc1/C=C/C(=O)c1ccc(O)cc1 [Echinatin]	could increase the fluorescence expression	could be abated by AM630	increased	inhibited TRAP activity	increased	increased	7.04	–	–	–	–
COc1ccc(/C=C/C(=O)c2c(O)cc(OC)cc2OC)cc1 [Flavokawain A]	could increase the fluorescence expression	could be abated by AM630	increased	inhibited TRAP activity	increased	increased	6.04	–	–	–	–
COc1cc(O)c(C(=O)/C=C/c2ccc(O)cc2)c(OC)c1 [Flavokawain C]	could increase the fluorescence expression	could be abated by AM630	had no effect on the proliferation	–	–	–	5.29	–	–	–	–
O=c1cc(-c2ccc(O)c(O)c2)oc2c([C@@H]3O[C@H](CO)[C@@H](O)[C@H](O)[C@H]3O)c(O)cc(O)c12 [Orientin]	could increase the fluorescence expression	could be abated by AM630	had no effect on the proliferation	–	–	–	6.96	–	–	–	–
C=C[C@@]1(C)CC(=O)[C@]2(O)[C@@]3(C)[C@@H](O)CCC(C)(C)[C@@H]3[C@H](O)[C@H](OC(C)=O)[C@@]2(C)O1 [forskolin, reference compound]	–	–	–	–	–	–	–	–	–	–	63.3 ± 4.4%

From publication PMC8838898, “Identification of Novel Cannabinoid CB2 Receptor Agonists from Botanical Compounds and Preliminary Evaluation of Their Anti-Osteoporotic Effects” (Molecules, 2022)
